Measurements: US6245917A, “Crystalline sodium phenytoin monohydrate” (Warner-Lambert Company, priority 1999, dated 2001)

Columns and labels:
[1] = Weight change under controlled humidity conditions, first study (SPM made by the toluene slurry); type: physicochemical
Description: Study of weight change under controlled humidity conditions, samples were placed in open vials, which were placed in closed controlled-humidity jars. Relative humidities were controlled using saturated aqueous salt solutions: 58% RH, NaBr; 75% RH, (NH4)2 SO4; 76%, sodium acetate; 84% RH, KBr. Water uptake/loss characteristics of SPM and SPA were compared. Samples were kept at ambient temperature under various relative humidities (RHs) and were periodically weighed. […] The fact that SPM loses significant mass under even high humidity conditions is inconsistent with the loss of only water.

[2] = Intrinsic dissolution in 90% ethanol/10% water; type: physicochemical; settings: for concentration, average: average of runs
Method: Dissolutions were carried out in a standard Van-Kel dissolution bath. The medium was either water, 90% water/10% ethanol, or 95% water/5% ethanol. For nonintrinsic dissolution experiments, SPM and SPA powders were sieved and fractions that passed through a 75 μm sieve were used. For intrinsic dissolution experiments, tablets were prepared in a standard Woods apparatus by compression of 400 mg of material at 3000 psig for 1 minute.
Each experiment was carried out by placing 900 mL of medium into one of the Van-Kel dissolution vessels and allowing it to equilibrate at 37° C. The test materials were added (powder or tablet) and samples were withdrawn by syringe at the specified times (see Table 4). Each sample was filtered through a 0.2μ nylon syringe filter. Three dissolution experiments were carried out for each lot of suspension.
For intrinsic dissolution experiments, the test material is compressed into a tablet and the tablet (still in the die) is lowered into the dissolution medium. In this way, a consistent surface area, the tablet face, is presented to the medium. […] Therefore, tablets of SPM and SPA were prepared, removed from the die, crushed into powders, and examined by XRPD.
Intrinsic dissolution experiments were then carried out in 90% ethanol/10% water. The tablets dissolved very quickly in this medium, resulting in rapid deformation of the tablet faces. Occasionally pieces of solid broke free of the tablets and sank to the bottom of the dissolution vessel. Within 15-40 minutes the tablets had dissolved completely. Because of this behavior, consistent surface areas were not maintained during the course of the experiments. The result was a high degree of imprecision in the concentrations measured (Table 6).
Samples were analyzed by high-performance liquid chromatography (HPLC) on a BAS 480 HPLC system equipped with a UV/VIS detector and a TSP AS 100 autosampler, and controlled with INJECT software. A Phenomenex Hypersil C18 BDS column (5μ particle size, 4.6×150 mm) was used. The mobile phase was prepared by mixing water, methanol, and acetic acid in a 60:40:0.5 volume ratio. Analyses were carried out at a flow rate of 1 mL/minute with the UV/VIS detector set at 254 nm. The injection volume was 5 μL.
A standard solution consisting of 74.8 μg/mL of sodium phenytoin in mobile phase was injected three times before and three times after each series of analyses. Each unknown sample was injected three times without dilution. The peak areas at 254 nm were recorded and averaged for each time point. The amount of sodium phenytoin in solution at each time point was calculated from the line equation of the calibration curve: […]

[3] = all humidities utilized, ambient temperature

In the case of `O=C1NC(=O)C(c2ccccc2)(c2ccccc2)N1` [SPM, sodium phenytoin monohydrate], the “Percent change based on average of final two weights” value (“Percent change based on average” below) ([1]; 58% RH, monohydrate) is reported as -10%, the “Percent change based on average” value ([1]; 75% RH, monohydrate) is reported as -10% and the “Percent change based on average” value ([1]; 84% RH, monohydrate) is reported as -9%. For the same molecule, the “weight lost on reaching constant weight” value [1, 3] was 10%, the “concentration, average” value ([2]; 1 min, monohydrate) was 3300 ng/mL and the “concentration, Run 1” value ([2]; 1 min, monohydrate) was 2420 ng/mL. For the same molecule, the “concentration, Run 2” value ([2]; 1 min, monohydrate) was 2210 ng/mL, the “concentration, Run 3” value ([2]; 1 min, monohydrate) was 5260 ng/mL and the “time to complete dissolution of tablets” value ([2]; 90% ethanol/10% water) was 15 to 40 min. For the same molecule, the “dissolution rate relative to SPA” value ([2]; 90% ethanol/10% water, high degree of imprecision) was “dissolves more rapidly than does SPA”, the “concentration, average” value ([2]; 5 min, monohydrate) was 39460 ng/mL and the “concentration, Run 1” value ([2]; 5 min, monohydrate) was 44780 ng/mL. The “concentration, Run 2” value ([2]; 5 min, monohydrate) was 25240 ng/mL, the “concentration, Run 3” value ([2]; 5 min, monohydrate) was 48380 ng/mL and the “concentration, average” value ([2]; 10 min, monohydrate) was 92380 ng/mL. The “concentration, Run 1” value ([2]; 10 min, monohydrate) was 99180 ng/mL, the “concentration, Run 2” value ([2]; 10 min, monohydrate) was 70050 ng/mL and the “concentration, Run 3” value ([2]; 10 min, monohydrate) was 107910 ng/mL. The “concentration, Run 2” value ([2]; 15 min) was 120280 ng/mL, the “concentration, Run 3” value ([2]; 15 min) was 153220 ng/mL and the “concentration, average” value ([2]; 15 min) was 136750 ng/mL. The “concentration, average” value ([2]; 20 min, monohydrate) was 166110 ng/mL and the “concentration, Run 1” value ([2]; 20 min, monohydrate) was 166110 ng/mL.

In the case of `O=C1NC(=O)C(c2ccccc2)(c2ccccc2)N1` [SPA, sodium phenytoin anhydrate, reference compound], the “Percent change based on average” value ([1]; 58% RH) is reported as “+24%”, the “Percent change based on average” value ([1]; 75% RH) is reported as “+25%” and the “Percent change based on average” value ([1]; 84% RH) is reported as “+25%”. For the same molecule, the “weight gained on reaching constant weight” value [1, 3] was 25%, the “concentration, Run 1” value ([2]; 1 min) was 1730 ng/mL and the “concentration, Run 2” value ([2]; 1 min) was 1680 ng/mL. For the same molecule, the “concentration, Run 3” value ([2]; 1 min) was 3360 ng/mL, the “concentration, average” value ([2]; 1 min) was 2260 ng/mL and the “concentration, Run 1” value ([2]; 5 min) was 11710 ng/mL. For the same molecule, the “concentration, Run 2” value ([2]; 5 min) was 12240 ng/mL, the “concentration, Run 3” value ([2]; 5 min) was 19910 ng/mL and the “concentration, average” value ([2]; 5 min) was 14620 ng/mL. For the same molecule, the “concentration, Run 1” value ([2]; 10 min) was 23270 ng/mL, the “concentration, Run 2” value ([2]; 10 min) was 23840 ng/mL and the “concentration, Run 3” value ([2]; 10 min) was 57430 ng/mL. For the same molecule, the “concentration, average” value ([2]; 10 min) was 34840 ng/mL, the “concentration, Run 1” value ([2]; 20 min) was 47050 ng/mL and the “concentration, Run 2” value ([2]; 20 min) was 60830 ng/mL. For the same molecule, the “concentration, Run 3” value ([2]; 20 min) was 144620 ng/mL, the “concentration, average” value ([2]; 20 min) was 87170 ng/mL and the “concentration, Run 1” value ([2]; 40 min) was 112230 ng/mL. For the same molecule, the “concentration, Run 2” value ([2]; 40 min) was 139740 ng/mL, the “concentration, Run 3” value ([2]; 40 min) was 193120 ng/mL and the “concentration, average” value ([2]; 40 min) was 148360 ng/mL.
